Source: patent US6566359B1, “2,4,6-trimethyl-1,4-dihydro-pyridine-3,5-dicarboxylic acid esters as neuroprotective drugs” (Board of Supervisors of Louisiana State University and …, priority 2002, dated 2003)
Counter-ions that a name gives are not always drawn.

What was measured:
[1] = Middle cerebral artery occlusion (MCA-O) stroke model, infarct volume by TTC; assay type: in vivo, C57BL/6 mice
[2] = system: c-jun aminoterminal protein kinase (JNK); experiment: PAF-mediated JNK activation in HEK-293 cells, immunocomplex kinase assay; assay type: cell-based, human; conditions: PAF 100 nM
Experimental: Experimental Protocol: HEK-293 cells (transformed primary human embryo kidney cells, ATCC# CRL-1573) were cultured to confluency in DMEM-10% FBS high-glucose medium (GIBCO-BRL, Rockville, Md). Cells were cultured in 6-well plates and were treated with PAF (100 nM) for 60 min or interleukin-1β (“IL-1β”; 10 ng/ml) for 30 min, and then frozen for later assays for JNK and ERK as described below. To test the effect of compounds of the LAU-0900 series, HEK-293 cells were treated for 30 min with various concentrations (from 10 nM to 1 μM) of the experimental LAU-0900 series compound before the addition of PAF or IL-1β. […]
To measure the JNK activity, aliquots of 5 μg immunoprecipitates were incubated for 30 min at 30° C. using 10 μg GST-cJUN (Santa Cruz Biotechnology, Santa Cruz, Calif.) as substrate. […] The filter papers were washed twice with 10 mL per square 1% phosphoric acid, followed by one wash with water. ^32P on the filter paper was counted in a scintillation counter to quantify the phosphorylation of substrate proteins.

[3] = system: human COX-2 promoter; experiment: PAF-induced COX-2 promoter-luciferase transcription in CV-1 cells; assay type: cell-based; conditions: 100 nM compound, 100 nM PAF
Experimental: (§1) To test the ability of LAU-0900 series compounds to inhibit COX-2 expression, a kidney cell line was transiently transfected with the 830-base-pair human COX-2 promoter construct (proximal to the transcription start site) fused to the luciferase gene as a reporter as described below.
(§2) Transfection of CV-1 cells with human COX-2promoterfused with LUC: C V-1 Cells (African green monkey kidney cell line, ATCC # CCL-17) were grown in DMEM-F12 (GIBCO-BRL, Rockville, Md.) supplemented with 10% FBS (fetal bovine serum) in 6-well plates. At 80% confluence, the cells were transfected with 10 μg human COX-2 promoter-LUC construct (containing 830 base pairs of the human COX-2 promoter (donated by Dr. Stephen Prescot, Huntsman Cancer Institute, Salt Lake City, Utah) using a liposomal transfection reagent (DOTAP, Roche Diagnostics, Gmbh, Mannheim, Germany). Promoterless β-galactosidase construct (Promega, Madison, Wis.) was co-transfected to assess transfection efficiency. Three hours after transfection at 37° C., the medium was removed, and the cells were washed with phonsphate-buffered saline solution, pH 7.2 (PBS; Gibco-BRL, Rockville Md. The plates were further incubated at 37° C. in complete medium DMEM-F12 with 10% FBS for about 8-10 hr. Before the addition of the inducers of COX-2, PAF (100 nM) or IL-1β (10 ng/ml), the CV-1-transfected cells were serum-starved for 8 hr at 37° C. After the addition of the inducers, the cells were incubated for 8-10 hr at 37° C. Then the medium was removed, the cells were washed with PBS, harvested, and frozen at −80° C. until used for assays.
(§3) To test the effectiveness of the LAU-0900 series compounds, the transfected cells were treated for 1 hr with 100 nM of various LAU-0900 series compounds before the addition of the inducers (either PAF or IL-1β, and the LAU-0900 compound remained in the medium throughout the incubation period.
(§4) Luciferase assay of transfected CV-1 cells: Frozen cells were homogenized in 300 μl luciferase assay buffer (“ALL”, Analytical Luminescence Laboratory, San Diego, Calif.), and cellular debris was collected as a pellet by centrifugation at 2800×g for 20 min at 4° C. Supernatants (20-30 μl) were normalized to 1 μg/ml of total protein content, and were mixed with 70-80 μl ALL buffer. Reactions were initiated by injection of 100 μl of 1 mM luciferin (Sigma Chemical Co., St. Louis, Mo.). The relative light units were determined by using an ALL luminometer that recorded over 20-second intervals.

[4] = system: human COX-2 promoter; experiment: IL-1β-induced COX-2 promoter-luciferase transcription in CV-1 cells; assay type: cell-based; conditions: 100 nM compound, 10 nM IL-1β
Experimental: as §1, §2, §3, §4

[5] = system: ARPE-19 cells; experiment: Oxidative stress-induced cell death (TNF + H2O2), Hoechst staining; assay type: cell-based, human; conditions: TNF 10 ng/ml + H2O2 1.6 μM
Experimental: To test the effectiveness of the LAU-0900 series compounds as inhibitors of oxidative stress-induced cell death, human retinal pigment epithelial cells in culture (ARPE-19 cells, ATCC #CRL-2302) were used. ARPE-19 cells were cultured to confluence in DMEM-10% FBS medium (Gibco-BRL). The cells were then divided into 11 groups. Nine groups were exposed overnight to […] of a test compound selected from LAU-0901, LAU-0903, LAU-0904, LAU-0905, LAU-0906, LAU-0907, LAU-0908, LAU-0909, and LAU-0910. The other two groups were control groups, and were not exposed to any test chemical. In the nine groups and in one control group, oxidative stress was triggered by the addition of a combination of tumor necrosis factor (“TNF”; 10 ng/ml) and hydrogen peroxide (“H2O2”; 1.6 μM). The second control group was not treated with TNF and H2O2.
The amount of Hoeschst staining was least in the group treated with LAU-0901, and most in the group treated with LAU-0910.

[6] = biological target: intracellular type PAF receptor (rat brain microsomal preparations) (Rattus norvegicus, UniProt P46002); experiment: Competition for 3H-PAF binding to rat brain cortex microsomal membranes; conditions: rat brain microsomal
Experimental: (§5) Binding studies were performed on subcellular fractions of tissues obtained from rat brain cortex, according to procedures described in V. Marcheselli et al., “Distinct platelet-activating factor binding sites in synaptic endings and in intracellular membranes of rat cerebral cortex,” J. biol. Chem., vol. 265, pp. 9140-9145 (1990). Freshly dissected brain tissues were homogenized in ice-cold buffer (50 mM Tris-HCl, 2 mM EGTA, 5 mM PMSF, 250 mM sucrose, 7.4 pH). Subcellular fractions were obtained by differential centrifugation. The microsomal fraction was sedimented after 100,000×g for 1 hour centrifugation. In addition, three cell lines from Chinese hamster ovary (CHO) with varying expression of PAF receptors, CHO-A, CHO-B, and CHO-C cells (from Dr. Takao Shiizu, University of Tokyo, Tokyo, Japan) were cultured to the fourth-passage cells. These cells were cultured to confluence, then detached from their culturing flasks, and pelleted by rapid centrifugation (3,000 rpm, 10 min). Cellular pellets were homogenized in ice-cold buffer as described above. Freshly obtained microsomal fractions or CHO cellular homogenates were utilized for saturation, displacement, and competition studies using ^3H-PAF as the hot ligand, unlabeled-PAF to detect non-specific binding, and a LAU-0900 series compound to displace by competition ^3H-PAF bound to a receptor.

[7] = biological target: T1, cell-surface-type PAF receptor over-expressed in CHO-B cells (Cavia porcellus, UniProt P21556); experiment: Competition for 3H-PAF binding to CHO-B cell homogenates; conditions: CHO-B homogenates
T1 construct: expressed in transfected cells; host or cells: Chinese hamster ovary cells: CHO-B (high expression) and CHO-A (mild expression), used as cell homogenates
Experimental: as §5
(§6) See B. Liu et al., “Implication of protein kinase C alpha in PAF-stimulated phospholipase D Activation in Chinese hamster ovary (CHO) cells expressing PAF receptor,” Biochem. Biophys. Res. Commun., vol.214, pp.418-423 (1995). […] Both the constants of inhibition (KI) and 50% of inhibitory activity (IC50) were significant at a low concentration of LAU-0903.

[8] = system: CHO-C cells (do not exp PAF-R); experiment: Competition for 3H-PAF binding to CHO-C cell homogenates; conditions: CHO-C homogenates
Experimental: as §5, §6

[9] = known LD50; cited from earlier work
[10] = 30 mg/kg 1 hr after reperfusion following 1 hr of MCA-O

T1 sequence (P21556 whole entry): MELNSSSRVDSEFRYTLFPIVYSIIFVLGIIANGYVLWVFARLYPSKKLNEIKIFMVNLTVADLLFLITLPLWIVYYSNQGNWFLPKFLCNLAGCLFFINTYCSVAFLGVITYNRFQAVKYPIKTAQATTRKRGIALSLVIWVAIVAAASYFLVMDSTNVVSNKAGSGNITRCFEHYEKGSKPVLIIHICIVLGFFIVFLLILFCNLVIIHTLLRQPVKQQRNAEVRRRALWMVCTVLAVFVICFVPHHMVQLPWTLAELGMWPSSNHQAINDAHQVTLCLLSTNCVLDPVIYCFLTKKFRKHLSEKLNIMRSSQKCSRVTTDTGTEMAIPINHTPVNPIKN
Sequence of intracellular type PAF receptor (rat brain microsomal preparations) (P46002 whole entry): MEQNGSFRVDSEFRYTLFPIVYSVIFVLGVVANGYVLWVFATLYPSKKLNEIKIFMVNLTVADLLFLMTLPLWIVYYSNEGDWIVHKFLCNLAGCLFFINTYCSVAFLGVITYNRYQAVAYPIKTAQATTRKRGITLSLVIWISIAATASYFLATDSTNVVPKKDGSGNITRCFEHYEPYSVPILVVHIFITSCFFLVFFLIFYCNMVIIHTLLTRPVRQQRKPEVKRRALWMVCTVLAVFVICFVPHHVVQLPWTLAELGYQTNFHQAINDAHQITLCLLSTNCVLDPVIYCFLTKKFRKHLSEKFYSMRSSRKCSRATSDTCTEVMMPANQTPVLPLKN

In the case of `CC1=C(C(=O)OCCOc2ccc(Cl)c(Cl)c2)C(C)C(C(=O)OC(CN2CCOCC2)CN2CCOCC2)=C(C)N1` (centres unmarked) [LAU-0901, 2,4,6-Trimethyl-1,4-dihydro-pyridine-3,5-dicarboxylic acid 5-[2-(3,4-dichlorophenoxy)]ethyl ester 3-[1,3-di-(4-morpholinyl)-2-propyl-1-esterdihydrochloride], the “Reduction of infarcted volume” value [1, 10] is reported as 40%, the “Reduction of infarcted volume” value ([1]; 30 mg/kg at the onset of MCA-O, 1 hr MCA-O, killed 24 hr later) is reported as 40% and the “Reduction of infarcted volume” value ([1]; 30 mg/kg intraperitoneally 1 h before MCA-O, 1 hr MCA-O, killed 24 hr after) is reported as 55%. The “Lowest concentration inhibiting PAF-induced JNK” value [2] was ≤ 10 nM.
In the case of `COC(=O)C1=C(C)NC(C)=C(C(=O)OCCCSc2ccc(F)cc2)C1C` (centres unmarked) [LAU-0904, 2,4,6-Trimethyl-1,4-dihydro-pyridine-3,5-dicarboxylic acid 5-[3-(4-fluorophenysulfanyl)]-propyl-1-ester 3-methyl ester], the “Reduction of infarcted volume” value [1, 10] is reported as 40%.
For `CCCOc1ccc(SCCCOC(=O)C2=C(C)NC(C)=C(C(=O)OC)C2C)cc1` (centres unmarked) [LAU-0907, 2,4,6-Trimethyl-1,4-dihydro-pyridine-3,5-dicarboxylic acid 5-[3-(4-propoxyphenylsulfanyl)]-propyl-1-ester 3-methyl ester], the “Inhibition of COX-2 transcription induced by PAF” value (from here on “Inhibition … by PAF”) [3] was “inhibited” and the “Inhibition of COX-2 transcription induced by IL-1β” value (from here on “Inhibition … by IL-1β”) [4] was “inhibited”.
For `COC(=O)C1=C(C)NC(C)=C(C(=O)OCCCOc2ccc(/C=C/C(C)=O)cc2)C1C` (centres unmarked) [LAU-0908], the “Inhibition … by PAF” value [3] was “inhibited” and the “Inhibition … by IL-1β” value [4] was “inhibited”.
With `CCCCOc1ccc(OCCCOC(=O)C2=C(C)NC(C)=C(C(=O)OC)C2C)cc1` (centres unmarked) [LAU-0910, 2,4,6-Trimethyl-1,4-dihydropyridine-3,5-dicarboxylic acid 3-[3-(4-butoxyphenoxy)propyl]ester 5-methyl ester] the “Amount of Hoechst staining (cytoprotection)” value [5] was “most”.
In the case of `CCCC(=O)c1ccc(OCCCOC(=O)C2=C(C)NC(C)=C(C(=O)OC)C2C)cc1` (centres unmarked) [LAU-0913, 2,4,6-Trimethyl-1,4-dihydro-pyridine-3,5-dicarboxylic acid 5-[3-(4-butyryl-phenoxy)-propyl]1-ester 3-methyl ester], the “Inhibition … by PAF” value [3] is reported as “inhibited” and the “Inhibition … by IL-1β” value [4] is reported as “inhibited”.
Compound `CCCCCCCCCCCCCCCCOC[C@H](COP(=O)([O-])OCC[N+](C)(C)C)OC(C)=O` [^3H-PAF, ^3H-platelet-activating factor, reference compound] has a Kd ([6]; high-affinity binding site (H)) of 0.00205 nM, a Kd ([6]; low-affinity binding site (L)) of 30 nM and a Kd [7] of 0.15 nM. For the same compound, the “Kd 3H-PAF” value [8] was “No binding”.
For `CC(=O)Nc1ccc(O)cc1` [acetaminophen], the LD50 [9] is listed as 560 mg/kg.
